The experiment addresses T1, human CPT1A (Homo sapiens, UniProt P50416).
T1 construct: made in house; host or cells: Saccharomyces cerevisiae (pESC-trp) or cultured mammalian cells (pCDNA3.1); mitochondrial extract
T1 sequence (P50416 1-773): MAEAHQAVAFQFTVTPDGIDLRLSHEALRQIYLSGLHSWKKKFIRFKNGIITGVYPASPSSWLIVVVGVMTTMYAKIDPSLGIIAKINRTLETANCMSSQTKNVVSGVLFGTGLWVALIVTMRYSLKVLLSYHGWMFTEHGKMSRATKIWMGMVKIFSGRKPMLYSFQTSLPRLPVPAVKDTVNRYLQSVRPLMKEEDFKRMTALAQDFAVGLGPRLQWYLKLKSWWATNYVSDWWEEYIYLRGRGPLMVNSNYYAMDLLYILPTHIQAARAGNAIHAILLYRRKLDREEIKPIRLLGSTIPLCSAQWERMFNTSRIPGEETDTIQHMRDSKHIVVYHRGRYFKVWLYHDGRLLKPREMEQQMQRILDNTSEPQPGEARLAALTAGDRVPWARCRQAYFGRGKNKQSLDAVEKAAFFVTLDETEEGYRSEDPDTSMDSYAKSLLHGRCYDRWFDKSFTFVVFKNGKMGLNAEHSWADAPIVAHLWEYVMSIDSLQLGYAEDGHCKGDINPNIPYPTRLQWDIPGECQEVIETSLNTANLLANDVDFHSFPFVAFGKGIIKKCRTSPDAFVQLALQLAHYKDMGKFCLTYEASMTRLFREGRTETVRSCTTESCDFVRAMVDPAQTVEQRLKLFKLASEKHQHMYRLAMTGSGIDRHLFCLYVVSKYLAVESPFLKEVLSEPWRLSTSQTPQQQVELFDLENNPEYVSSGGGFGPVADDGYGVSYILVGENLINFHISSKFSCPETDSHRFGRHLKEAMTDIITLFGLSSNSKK
In words: Human CPT1A LC/MS assay. Format: biochemical. The note with it: human CPT1A LC/MS assay, dose response format. An excerpt: Nucleotide sequences encoding human CPT1 enzymes were individually cloned into the yeast expression vector pESC-trp at the Cla1 (5′ terminus) and Pac1 (3′ terminus) restriction sites by PCR amplification of the open reading frame using oligonucleotide primers designed to encode the wild-type CPT1 protein sequence. Standard molecular biology techniques were used to transform and express the CPT1 proteins in the yeast Saccharomyces cerevisiae. The yeast cells were lysed by enzymatic degradation of the cell wall by Zymolase, and the mitochondria were isolated by standard biochemical techniques. The integrity of the isolated mitochondria was monitored by determining the activity of succinate dehydrogenase in the mitochondrial preparations. The mitochondrial extracts were stored at −80° C. in buffer containing 10 mM HEPES pH 7.4 and 250 mM sucrose.
Human CPT1 (A, B, C) genes were additionally cloned into the pCDNA3.1 vector individually for expression in cultured mammalian cells. Cells expressing the exogenous CPT1A were identified and grown under standard conditions. Mammalian cells were harvested, and mitochondrial extracts prepared using standard biochemical methods. The mitochondrial extracts were stored at −80° C. in buffer containing 10 mM HEPES pH 7.4 and 250 mM sucrose.
Assays were performed in 96-well plate format. Each 100 μL reaction contained 40 mM KCl, 50 mM TrisHCl pH 7.5, and 250 mM mannitol (Assay Buffer), and 1.6 μg protein of an extract, 20 μM palmitoyl-CoA, 50 μM L-carnitine, and 10 ug/mL BSA. Reactions were incubated at room temperature and stopped after 10 minutes by extraction with 200 μL of water saturated n-butanol containing myristoyl carnitine (500 nM) as an internal standard. The samples were thoroughly mixed, and the phases separated by centrifugation. Samples were prepared for analysis with a 10 fold dilution of the n-butanol phase containing the reaction product palmitoyl carnitine into a 50:50 (acetonitrile:water) solvent for analysis. […] of prepared sample was separated on a Phenomenex Jupiter 5μ C4 reverse-phase column using an Agilent 1100 HPLC with a gradient from 50% acetonitrile (0.5% acetic acid) to 100% acetonitrile and quantified by detection with a Bruker Esquire 3000plus mass spectrometer. The abundance of the palmitoyl carnitine product was determined relative to the internal standard and the actual quantity of palmitoyl carnitine can be determined from a standard curve prepared using the n-butanol solution containing the internal standard.
Compounds were evaluated in two formats, a screening format, and a dose response format. The screening format was performed by adding 25 μL compound in 20% DMSO and Assay Buffer to 25 μL of extract containing […] and Assay Buffer, followed by a 10 minute incubation at room temperature. 50 μL of 40 μM palmitoyl-CoA in Assay Buffer was added to the reaction mixture, mixed and incubated for 10 minutes at room temperature. A negative control for activity was also performed where the carnitine was omitted from the reaction. A positive control for activity was also performed by omitting compound from the solution containing 20% DMSO and Assay Buffer. The reaction mixture was extracted and analyzed as described above. The inhibition by compound was determined by comparing the control relative activity to the relative activity observed in wells containing the compound. Relative activity was determined by subtracting the relative intensity (area palmitoyl carnitine/area myristoyl carnitine) observed in the negative control from the relative intensity observed in the experimental well, and dividing by the relative activity observed in the positive control.
[formula] Compound characterization by dose response format was performed using the above described assay conditions and a 16 point compound titration in 2 fold compound dilution steps. The DMSO concentration was kept constant at 20% (v/v) for all compound concentrations.

Compound `CCCn1cc(C(=O)N[C@H](CC(=O)[O-])C[N+](C)(C)C)c(C)n1` [Example S54, (R)-3-(3-methyl-1-propyl-1H-pyrazole-4-carboxamido)-4-(trimethyl-ammonio)butanoate] returned an IC50 of 1000 to 2500 µM.
The compound `C[N+](C)(C)C[C@@H](CC(=O)[O-])NC(=O)c1ccc(CSCc2ccccc2)o1` [Example S56, (R)-3-(5-(benzylthiomethyl)furan-2-carboxamido)-4-(trimethylammonio)-butanoate] displayed a concentration for half-maximal inhibition (IC50) of 1 to 10 µM.
The same measure for `CCCCCCOc1cccc(OCCCCCN(C)S(=O)(=O)N[C@H](CC(=O)[O-])C[N+](C)(C)C)c1` [Example S109, (R)-3-(N-(5-(3-(hexyloxy)phenoxy)pentyl)-N-methylsulfamoylamino)-4-(trimethylammonio)butanoate]: not above 1 µM; for `Cc1cccc(CCc2ccc(S(=O)(=O)N[C@H](CC(=O)O)C[N+](C)(C)C)s2)c1` [Example S77, (R)-3-carboxy-N,N,N-trimethyl-2-(5-(3-methylphenethyl)thiophene-2-sulfonamido)propan-1-aminium 2,2,2-trifluoroacetate]: 10 to 100 µM; for `C[N+](C)(C)C[C@@H](CC(=O)O)NS(=O)(=O)c1ccc(-c2ccccn2)s1` [Example S21, (R)-3-(5-(pyridin-2-yl)thiophene-2-sulfonamido)-4-(trimethylammonio)-butanoate 2,2,2-trifluoroacetate]: 1000 to 2500 µM.
`C[N+](C)(C)C[C@@H](CC(=O)[O-])NC(=O)Nc1cc(C(F)(F)F)ccc1Cl` [Example S85, (R)-3-(3-(2-chloro-5-(trifluoromethyl)phenyl)ureido)-4-(trimethyl-ammonio)butanoate] yielded an IC50 of 1000 to 2500 µM.
The same measure for `C[N+](C)(C)C[C@@H](CC(=O)[O-])NC(=O)c1ccc(CSc2ccc(Cl)cc2)o1` [Example S71, (R)-3-(5-((4-chlorophenylthio)methyl)furan-2-carboxamido)-4-(trimethyl-ammonio)butanoate]: not above 1 µM; for `CCCCCc1ccc(NC(=O)N[C@H](CC(=O)[O-])C[N+](C)(C)C)cc1` [Example S15, (R)-3-Carboxy-N,N,N-trimethyl-2-(3-(4-pentylphenyl)ureido)propan-1-aminium]: 10 to 100 µM.
In turn, `CCCCCCCCCCc1ccc(NS(=O)(=O)N[C@H](CC(=O)O)C[N+](C)(C)C)cc1` [Example S92, (R)-3-(N-(4-decylphenyl)sulfamoylamino)-4-(trimethylammonio)butanoate] gave an IC50 not above 1 µM.
The same measure for `CCCCCCCCOc1ccc(NS(=O)(=O)N[C@H](CC(=O)[O-])C[N+](C)(C)C)cc1` [Example S103, (R)-3-(N-(4-(octyloxy)phenyl)sulfamoylamino)-4-(trimethylammonio) butanoate]: not above 1 µM; for `C[N+](C)(C)C[C@@H](CC(=O)O)NC(=O)c1ccc(CCc2ccsc2)s1` [Example S98, (R)-3-carboxy-N,N,N-trimethyl-2-(5-(2-(thiophen-3-yl)ethyl)thiophene-2-carboxamido)propan-1-aminium 2,2,2-trifluoroacetate]: not above 1 µM.
The same measure for `CCCCCc1ccc(S(=O)(=O)N[C@H](CC(=O)O)C[N+](C)(C)C)cc1` [Example S23, (R)-3-(4-pentylphenylsulfonamido)-4-(trimethylammonio)butanoate 2,2,2-trifluoroacetate]: 1 to 10 µM; for `CCCCCCCCc1cccc(NS(=O)(=O)N[C@H](CC(=O)[O-])C[N+](C)(C)C)c1` [Example S111, (R)-3-(N-(3-octylphenyl)sulfamoylamino)-4-(trimethylammonio)-butanoate]: not above 1 µM.
Compound `CCCCc1ccc(NC(=O)N[C@H](CC(=O)[O-])C[N+](C)(C)C)c(C)c1` [Example S13, (R)-2-(3-(4-Butyl-2-methylphenyl)ureido)-3-carboxy-N,N,N-trimethylpropan-1-aminium] gave an IC50 of 1000 to 2500 µM.
The same measure for `C[N+](C)(C)C[C@@H](CC(=O)[O-])NC(=O)c1ccc(Oc2ccccc2)nc1` [Example S50, (R)-3-(6-phenoxynicotinamido)-4-(trimethylammonio)butanoate]: 100 to 1000 µM; for `CCCCCCCc1ccc(NS(=O)(=O)N[C@H](CC(=O)[O-])C[N+](C)(C)C)cc1` [Example S27, (R)-3-(N-(4-heptylphenyl)sulfamoylamino)-4-(trimethylammonio)-butanoate]: not above 1 µM.
The same measure for `COc1ncc(C#Cc2ccc(C(=O)N[C@H](CC(=O)O)C[N+](C)(C)C)o2)cn1` [Example S117]: 100 to 1000 µM; for `CCCCCCC#Cc1cccc(N(C)S(=O)(=O)N[C@H](CC(=O)[O-])C[N+](C)(C)C)c1` [Example S112, (R)-3-(N—(N-methyl-N-(3-(oct-1-ynyl)phenyl)sulfamoyl)amino)-4-(trimethyl-ammonio)butanoate]: 10 to 100 µM.
On to `C[N+](C)(C)C[C@@H](CC(=O)[O-])NC(=O)c1ccc(COc2cccc3ccccc23)o1` [Example S58, (R)-3-(5-((naphthalen-1-yloxy)methyl)furan-2-carboxamido)-4-(trimethyl-ammonio)butanoate], for which the concentration for half-maximal inhibition (IC50) fell in the range of 1 to 10 µM.
The same measure for `CCCCCCOc1cccc(CCc2ccc(C(=O)N[C@H](CC(=O)O)C[N+](C)(C)C)o2)c1` [Example S125, (R)-3-carboxy-2-(5-(3-(hexyloxy)phenethyl)furan-2-carboxamido)-N,N,N-trimethylpropan-1-aminium 2,2,2-trifluoroacetate]: not above 1 µM; for `CCCCCc1ccc(CCc2ccc(NS(=O)(=O)N[C@H](CC(=O)[O-])C[N+](C)(C)C)cc2)cc1` [Example S108, (R)-3-(N-(4-(4-pentylphenethyl)phenyl)sulfamoylamino)-4-(trimethyl-ammonio)butanoate]: not above 1 µM.
The same measure for `C[N+](C)(C)C[C@@H](CC(=O)O)NS(=O)(=O)c1ccc(C#Cc2ccccc2)s1` [Example S78, (R)-3-carboxy-N,N,N-trimethyl-2-(5-(phenylethynyl)thiophene-2-sulfonamido)propan-1-aminium 2,2,2-trifluoroacetate]: 100 to 1000 µM; for `C[N+](C)(C)C[C@@H](CC(=O)[O-])NC(=O)Nc1cccc(-n2cccc2)c1` [Example S84, (R)-3-(3-(3-(1H-pyrrol-1-yl)phenyl)ureido)-4-(trimethylammonio)butanoate]: 100 to 1000 µM.
The compound `CN(C(=O)N[C@H](CC(=O)[O-])C[N+](C)(C)C)c1ccc(Oc2ccccc2)cc1` [Example S34, (R)-3-(3-methyl-3-(4-phenoxyphenyl)ureido)-4-(trimethyl-ammonio)butanoate] registered a half-inhibitory concentration (IC50) of 100 to 1000 µM.

The term IC50 denotes the concentration needed to halve the response being measured.

The values are drawn from US8410150B2, “Inhibitors of carnitine palmitoyltransferase and treating cancer” (University Health Network, priority 2007, dated 2013).
